Results from patent US6348478B1, “Biphenylamidine derivatives” (Teijin Limited, priority 1997, dated 2002).
Values joined by “and” are separate entries in the source; they are usually repeats but may differ in a detail not shown here. Equal values may be shown once.

Assays:
human FXa = human FXa (Homo sapiens, UniProt P00742); assay: Measurement of activated blood coagulation factor X (FXa)-inhibiting action; type: biochemical; details: substrate S-2765, 30 minutes incubation, A405, read-out: FXa inhibition activity (IC50)
Chain of human FXa (P00742 235-488 limits assumed): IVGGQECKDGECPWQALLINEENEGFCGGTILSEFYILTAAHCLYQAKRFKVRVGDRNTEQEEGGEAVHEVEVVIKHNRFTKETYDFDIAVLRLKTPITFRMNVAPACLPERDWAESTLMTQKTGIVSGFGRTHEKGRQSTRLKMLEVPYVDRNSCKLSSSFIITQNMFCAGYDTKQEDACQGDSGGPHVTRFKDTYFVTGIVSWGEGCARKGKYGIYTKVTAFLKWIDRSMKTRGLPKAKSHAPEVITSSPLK
Chain of human FXa (P00742 41-179 partner limits assumed): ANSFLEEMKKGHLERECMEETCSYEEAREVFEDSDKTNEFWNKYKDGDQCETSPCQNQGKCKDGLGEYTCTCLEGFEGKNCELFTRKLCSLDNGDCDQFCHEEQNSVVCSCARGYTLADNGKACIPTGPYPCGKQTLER
Experimental: Measurement of activated blood coagulation factor X (FXa)-inhibiting action
(§1) A specimen was dissolved in water or in water containing an organic solvent (DSMO, ethanol or methanol) in a proper concentration to prepare a specimen. 70 μl of the specimen stepwisely diluted with water was mixed with 90 μl of a 100 mM Tris buffer solution (pH 8.4), 20 μl of a 50 mM Tris buffer solution (pH 8.4) of 50 mU/ml human FXa, and a 2 mM substrate (Daiichikagaku. S-2765), incubated for 30 minutes, mixed with 50 μl of 50% acetic acid, and then subjected to the measurement of absorbance (A405). A blank was prepared by adding the Tris buffer solution instead of the FXa, and a control was prepared by adding water instead of the specimen. A 50% inhibition activity (IC50) was determined, and used as the index of the FXa-inhibiting action.

human thrombin = molecular target: T1, human thrombin (Homo sapiens, UniProt P00734); assay: Measurement of thrombin inhibition action; type: biochemical; details: substrate S-2238, 30 minutes incubation, A405
T1 construct: 1U/ml human thrombin
Experimental: Measurement of thrombin inhibition action
as §1, with “70” for “A specimen was dissolved in water or in water containing an organic solvent (DSMO, ethanol or methanol) in a proper concentration to prepare a specimen. 70”, “1U/ml” for “50 mU/ml”, “thrombin,” for “FXa,”, “S-2238),” for “S-2765),”, “thrombin inhibition” for “FXa-inhibiting”

COC(=O)c1cc(COc2ccc(C(C)C)cc2)cc(-c2cccc(C(=N)N)c2)c1 [Example 3]
IC50 (human FXa): 1 to 10 µM

CC(C)c1ccc(OCc2cc(C(=O)O)cc(-c3cccc(C(=N)N)c3)c2)cc1 [Example 4]
IC50 (human FXa): 1 to 10 µM

COC(=O)c1cc(COc2cccc(CN)c2)cc(-c2cccc(C(=N)N)c2)c1 [Example 5]
IC50 (human FXa): 1 to 10 µM | IC50 (human thrombin): > 100 µM

N=C(N)c1cccc(-c2cc(COc3cccc(CN)c3)cc(C(=O)O)c2)c1 [Example 6]
IC50 (human FXa): 1 to 10 µM | IC50 (human thrombin): > 100 µM

COC(=O)c1cc(COc2cccc(CCN)c2)cc(-c2cccc(C(=N)N)c2)c1 [Example 9]
IC50 (human FXa): 1 to 10 µM | IC50 (human thrombin): > 100 µM

N=C(N)c1cccc(-c2cc(COc3cccc(CCN)c3)cc(C(=O)O)c2)c1 [Example 10]
IC50 (human FXa): 1 to 10 µM | IC50 (human thrombin): > 100 µM

COC(=O)c1cc(COc2cccnc2N)cc(-c2cccc(C(=N)N)c2)c1 [Example 11]
IC50 (human FXa): 10 to 100 µM | IC50 (human thrombin): > 100 µM

COC(=O)c1cc(COc2ccc(C)cc2N)cc(-c2cccc(C(=N)N)c2)c1 [Example 12]
IC50 (human FXa): 1 to 10 µM | IC50 (human thrombin): > 100 µM

COC(=O)c1cc(COc2cccc(N)c2)cc(-c2cccc(C(=N)N)c2)c1 [Example 13]
IC50 (human thrombin): > 100 µM

COC(=O)c1cc(COc2cccc(CO)c2)cc(-c2cccc(C(=N)N)c2)c1 [Example 15]
IC50 (human FXa): 1 to 10 µM and 10 to 100 µM

CNc1ccc(OCc2cc(C(=O)OC)cc(-c3cccc(C(=N)N)c3)c2)cc1 [Example 16]
IC50 (human thrombin): 10 to 100 µM

COC(=O)c1cc(COc2ccc3c(c2)CNC3)cc(-c2cccc(C(=N)N)c2)c1 [Example 18]
IC50 (human FXa): 0.1 to 1 µM

COC(=O)c1cc(COc2ccc3c(c2)CN(C(C)=N)C3)cc(-c2cccc(C(=N)N)c2)c1 [Example 19]
IC50 (human FXa): 0.1 to 1 µM | IC50 (human thrombin): 10 to 100 µM

COC(=O)c1cc(-c2cccc(C(=N)N)c2)ccc1COc1cccc(CN)c1 [Example 20]
IC50 (human FXa): 10 to 100 µM | IC50 (human thrombin): > 100 µM

COC(=O)c1cc(COCc2ccccc2)cc(-c2cccc(C(=N)N)c2)c1 [Example 23]
IC50 (human FXa): 1 to 10 µM
